Experimental data: patent US12152038B2, “Vasopressin receptor antagonists and products and methods related thereto” (Neumora Therapeutics, Inc., priority 2017, dated 2024)
Like-named read-outs stand apart in the source and are kept apart here.

Tests used:
[1] = biological target: T1, human Oxytocin Receptor (hOTR) (Homo sapiens, UniProt P30559); assay: Oxytocin receptor (OTR) antagonist assay (FLIPR calcium, CHEM-1-hOTR cells); format: cell-based
T1 construct: host or cells: CHEM-1 (ready-to-assay frozen cells)
T1 sequence (P30559 1-389): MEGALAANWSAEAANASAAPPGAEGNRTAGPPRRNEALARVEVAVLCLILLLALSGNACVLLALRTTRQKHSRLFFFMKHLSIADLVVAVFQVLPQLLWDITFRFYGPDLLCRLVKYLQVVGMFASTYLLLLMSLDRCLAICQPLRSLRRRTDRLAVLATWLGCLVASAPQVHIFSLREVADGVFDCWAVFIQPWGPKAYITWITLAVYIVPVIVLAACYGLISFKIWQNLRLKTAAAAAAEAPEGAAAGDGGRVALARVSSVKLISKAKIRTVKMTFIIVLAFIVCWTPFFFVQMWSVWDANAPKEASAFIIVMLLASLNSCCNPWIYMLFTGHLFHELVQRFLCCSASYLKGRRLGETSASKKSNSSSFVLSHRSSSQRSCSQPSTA
Description: This assay was performed in CHEM-1 cells expressing the human Oxytocin Receptor (hOTR) to determine the inhibitory effect of the compounds of the invention on the human Oxytocin receptor. Oxytocin evokes an increase in intracellular calcium in CHEM-1-hOTR cells which is measured in a fluorescence assay on the FLIPR^TETRA using calcium sensitive dyes. Test compounds were assessed for their ability to affect the magnitude of the response to oxytocin, with antagonists showing a concentration-dependent reduction in the oxytocin-mediated fluorescence.
CHEM-1-hOTR ready was used to assay frozen cells (Eurofins #HTS09ORTA) which are supplied with a proprietary Media Component.
Day 1 of the assay: Cells were thawed in a 37° C. water bath and diluted with the supplied Media Component to a final volume of 10 ml. The cell suspension was centrifuged at 1000 rpm for 3 min at room temperature and the supernatant was discarded. The cell pellet was resuspended in Media Component (10.5 ml) and the cells (25 μL) were dispensed into a poly-D-lysine coated black, clear bottomed, 384-well plate. The plates were incubated overnight at 37° C., 5% CO2.
Day 2: At the start of each assay day the potency of oxytocin was assessed and an EC80 concentration was determined for subsequent compound profiling. Assays were performed using a two-step addition protocol on the FLIPR^TETRA; first addition of 5 μl of control or test compound at 10× final in assay buffer with 15 min incubation at 37° C., 5% CO2 followed by 10 μl of oxytocin at 6× final concentration in assay buffer. Changes in fluorescence were monitored for 3 min after both additions on the FLIPR^TETRA using 470-495 nm excitation and 515-575 nm emission wavelengths. The assay buffer consisted of HBSS (+Ca/+Mg) supplemented with 20 mM HEPES, and for the preparation of the oxytocin agonist only, 0.1% w/v bovine serum albumin. The assay was initiated by the removal of growth media from the cells and replaced with 45 μl of Calcium-6 dye (Molecular Devices) prepared at 1× in assay buffer. Cells were loaded with dye for 60-90 min at 37° C., 5% CO2 before initiation of the FLIPR^TETRA protocol. […] For compound profiling, test compounds were first serially diluted in DMSO (10-point curve, 1:3 dilutions) then diluted 33.3-fold in assay buffer prior to addition to the dye loaded cells on the FLIPR^TETRA. At the end of the incubation period 10 μl of oxytocin in assay buffer containing 0.1% BSA was added at the previously determined EC80 concentration.
In-plate controls for the assay included a L-368,899 concentration-response curve as the reference OTR antagonist and an oxytocin concentration-response curve to confirm the reproducibility of the EC80 used for the compound challenge.

MDR1 (P-glycoprotein) = biological target: T2, MDR1 (P-glycoprotein) (Homo sapiens, UniProt P08183); assay: MDR1-MDCK permeability and efflux assay (Papp, efflux ratio, effective efflux ratio); format: in vitro ADME; details: for efflux ratio at 1 h, 10 μM / Papp A→B at 1 h, 10 μM: dog; for Papp A→B at 1 h, 10 μM: pH 7.4, read-out: Papp AB MDR1; for Papp A→B at 1 h, 10 μM / Papp AB MDR1: A->B; for EER (Effective Efflux Ratio): ER(MDR1-MDCK)/ER(wild-type MDCK); for ER MDR1 (Efflux Ratio): Papp B>A/Papp A>B
T2 construct: host or cells: MDCK (MDR1-MDCK; wild-type MDCK as comparator)
T2 sequence (P08183 whole entry): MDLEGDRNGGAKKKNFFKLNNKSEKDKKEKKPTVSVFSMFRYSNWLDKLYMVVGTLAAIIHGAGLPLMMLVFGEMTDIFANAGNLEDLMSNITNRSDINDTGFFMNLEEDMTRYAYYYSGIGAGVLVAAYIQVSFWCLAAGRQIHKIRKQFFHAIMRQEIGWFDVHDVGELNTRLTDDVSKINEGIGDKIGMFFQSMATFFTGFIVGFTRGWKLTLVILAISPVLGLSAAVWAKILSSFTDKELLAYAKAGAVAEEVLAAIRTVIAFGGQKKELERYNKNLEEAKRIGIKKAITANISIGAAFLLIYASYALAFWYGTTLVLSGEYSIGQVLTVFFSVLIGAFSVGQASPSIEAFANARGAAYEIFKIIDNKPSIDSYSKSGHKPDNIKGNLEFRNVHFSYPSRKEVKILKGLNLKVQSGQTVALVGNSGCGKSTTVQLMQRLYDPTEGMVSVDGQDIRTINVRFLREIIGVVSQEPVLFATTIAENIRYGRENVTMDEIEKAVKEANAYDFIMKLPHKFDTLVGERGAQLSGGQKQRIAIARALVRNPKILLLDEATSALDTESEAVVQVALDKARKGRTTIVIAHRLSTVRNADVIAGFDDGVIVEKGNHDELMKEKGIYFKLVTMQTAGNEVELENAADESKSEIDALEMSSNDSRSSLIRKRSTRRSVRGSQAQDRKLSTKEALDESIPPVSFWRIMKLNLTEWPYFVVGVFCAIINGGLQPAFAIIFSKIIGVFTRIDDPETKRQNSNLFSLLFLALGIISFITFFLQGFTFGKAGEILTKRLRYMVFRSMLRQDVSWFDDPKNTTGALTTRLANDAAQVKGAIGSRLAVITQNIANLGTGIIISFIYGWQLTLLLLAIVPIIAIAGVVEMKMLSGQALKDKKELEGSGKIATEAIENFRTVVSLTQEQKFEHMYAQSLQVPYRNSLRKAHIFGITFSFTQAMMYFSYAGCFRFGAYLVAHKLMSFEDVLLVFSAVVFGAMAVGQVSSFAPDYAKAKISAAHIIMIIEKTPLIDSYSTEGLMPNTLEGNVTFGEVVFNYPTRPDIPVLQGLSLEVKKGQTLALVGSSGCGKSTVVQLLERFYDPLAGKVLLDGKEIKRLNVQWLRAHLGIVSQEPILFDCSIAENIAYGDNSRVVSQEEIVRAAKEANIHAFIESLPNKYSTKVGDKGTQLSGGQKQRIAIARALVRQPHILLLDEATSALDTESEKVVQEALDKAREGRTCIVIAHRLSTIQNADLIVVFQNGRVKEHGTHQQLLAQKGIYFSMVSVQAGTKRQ
Description: The MDR1-MDCK effective efflux assay was performed as described in the BioFocus Standard Operating Procedure, ADME-SOP-56. Both wild-type (WT) and MDR1-MDCK cells (Solvo Biotechnology) were seeded onto 24-well Transwell plates at 2.35×10^5 cells per well and used in confluent monolayers after a 3 day culture at 37° C. under 5% CO2. For both cell types, test and control compounds (propranolol, vinblastine) were added (10 μM, 0.1% DMSO final, n=2) to donor compartments of the Transwell plate assembly in assay buffer (Hanks balanced salt solution supplemented with 25 mM HEPES, adjusted to pH 7.4) for both apical to basolateral (A>B) and basolateral to apical (B>A) measurements. Incubations were performed at 37° C., with samples removed from both donor and acceptor chambers at T=0 and 1 hour and compound analysed by mass spectrometry (LC-MS/MS) including an analytical internal standard.
Apparent permeability (Papp) values were determined from the relationship: Papp=[CompoundAcceptor T=end]×V Acceptor/([Compound Donor T=0]×V Donor)/incubation time×V Donor/Area×60×10^−6 cm/s
In this equation, V is the volume of each Transwell compartment (apical 125 μL, basolateral 600 μL), and concentrations are the relative MS responses for compound (normalized to internal standard) in the donor chamber before incubation and acceptor chamber at the end of the incubation, and Area is the area of cells exposed for drug transfer (0.33 cm^2).
Efflux ratios (Papp B>A/Papp A>B) were calculated for each compound from the mean Papp values in each direction for both wild-type and MDR1-MDCK cells.
In order to confirm the involvement of MDR1 in any efflux seen, an “effective efflux ratio” (EER) was calculated by comparing compound efflux ratios (ER) in the two cell types by the following equation: EER=ER(MDR1-MDCK)/ER(wild-type MDCK)
This ratio illustrates the effect of the over-expressed MDR1 normalised for the background movement of compound through the wild-type cells.
Lucifer Yellow (LY) was added to the apical buffer in all wells to assess viability of the cell layer. […] Recoveries<50% indicates compound solubility, stability or binding issues, thereby reducing the reliability of a result.
The inherent ability of a potential drug molecule to penetrate the blood brain barrier and avoid efflux by transporters expressed in the brain, can be roughly correlated with the Papp(A-B) and the efflux ratio (as defined above), respectively. A potential drug molecule with an apparent permeability<7 (10^−6 cm/sec) has low permeability (+), >7 (10^−6 cm/sec) but <10 (10^−6 cm/sec) has moderate permeability (++), >10 (10^−6 cm/sec) but <20 (10^−6 cm/sec) has good permeability (+++), and >20 (10^−6 cm/sec) is highly permeable (++++). High permeability in the WT and MDCK II cell permeability assay increases the probability of blood brain barrier penetration and access to the CNS. A potential drug molecule in the above assay system with an efflux ratio or effective efflux ratio of <1 has low probability of being an efflux substrate (++++), >1 but <2 has moderate probability of being an efflux substrate (+++), >2 but <3 has has an increased probability of being an efflux substrate (++), and >3 has a high probability of being an efflux substrate (+). If a potential drug molecule is an efflux substrate, the molecule will have a low probability of reaching exposures in the brain (site of action) that will result in efficacious levels of receptor occupancy.

[2] = MDCK-MDR1, pH 7.4, ER(MDR1-MDCK)/ER(wild-type MDCK), read-out: EER (Effective Efflux Ratio)
[3] = MDCK-MDR1, pH 7.4, Papp B>A/Papp A>B, MDR1-MDCK cells, read-out: ER MDR1 (Efflux Ratio)

| Compound | IC50 [1] | efflux ratio at 1 h, 10 μM (MDR1 (P-glycoprotein); [2]) | efflux ratio at 1 h, 10 μM (MDR1 (P-glycoprotein); [3]) | Papp A→B at 1 h, 10 μM (MDR1 (P-glycoprotein); MDR1-MDCK cells) | Papp AB MDR1 (MDR1 (P-glycoprotein); MDR1-MDCK cells) | EER (Effective Efflux Ratio) (MDR1 (P-glycoprotein)) | ER MDR1 (Efflux Ratio) (MDR1 (P-glycoprotein); MDR1-MDCK cells) |
| --- | --- | --- | --- | --- | --- | --- | --- |
| CC1COc2cc(F)ccc2N1C(=O)N1CC2(C1)CN(c1noc3ccccc13)C2 (single isomer, unassigned) [4-3-B] | ≥ 1000 nM | < 1 | < 1 | > 20 ×10⁻⁶ cm/s |  |  |  |
| O=C(N1CC2(C1)CN(c1ccc(F)cn1)C2)N1CCC(O)c2cc(Cl)ccc21 (single isomer, unassigned) [13-1-A] | ≥ 1000 nM | > 3 | > 3 | > 20 ×10⁻⁶ cm/s |  |  |  |
| O=C(N1CC2(C1)CN(c1ccccn1)C2)N1CCC(O)c2cc(Cl)ccc21 (single isomer, unassigned) [13-2-B] | 500 to 1000 nM | > 3 | > 3 | > 20 ×10⁻⁶ cm/s |  |  |  |
| CC1COc2cc(Cl)ccc2N1C(=O)N1CC2(C1)CN(c1noc3cccnc13)C2 (single isomer, unassigned) [18-3-B] | ≥ 1000 nM | < 1 | < 1 | > 20 ×10⁻⁶ cm/s |  |  |  |
| CC1COc2cc(F)c(F)cc2N1C(=O)N1CC2(C1)CN(c1ncccn1)C2 (single isomer, unassigned) [19-1-B] | ≥ 1000 nM | < 1 | 1 to 2 | > 20 ×10⁻⁶ cm/s |  |  |  |
| CC1COc2cc(Cl)c(F)cc2N1C(=O)N1CC2(C1)CN(c1ncccn1)C2 (single isomer, unassigned) [19-2-B] | 500 to 1000 nM | < 1 | 1 to 2 | > 20 ×10⁻⁶ cm/s |  |  |  |
| Cc1ccnc(N2CC3(CN(C(=O)N4c5ccc(F)cc5OCC4C)C3)C2)c1 (single isomer, unassigned) [20-4-B] | 500 to 1000 nM | 1 to 2 | < 1 | > 20 ×10⁻⁶ cm/s |  |  |  |
| COc1ccnc(N2CC3(CN(C(=O)N4c5ccc(Cl)cc5OCC4C)C3)C2)n1 (single isomer, unassigned) [20-9-B] | 500 to 1000 nM | 1 to 2 | 1 to 2 | > 20 ×10⁻⁶ cm/s |  |  |  |
| Cc1nccnc1N1CC2(CN(C(=O)N3c4ccc(Cl)cc4OCC3C)C2)C1 (single isomer, unassigned) [20-10-A] | 100 to 500 nM | 1 to 2 | 1 to 2 | > 20 ×10⁻⁶ cm/s |  |  |  |

Second part, led by results:

| IC50 [1] | efflux ratio at 1 h, 10 μM (MDR1 (P-glycoprotein); [2]) | efflux ratio at 1 h, 10 μM (MDR1 (P-glycoprotein); [3]) | Papp A→B at 1 h, 10 μM (MDR1 (P-glycoprotein); MDR1-MDCK cells) | Compound | Papp AB MDR1 (MDR1 (P-glycoprotein); MDR1-MDCK cells) | EER (Effective Efflux Ratio) (MDR1 (P-glycoprotein)) | ER MDR1 (Efflux Ratio) (MDR1 (P-glycoprotein); MDR1-MDCK cells) |
| --- | --- | --- | --- | --- | --- | --- | --- |
| 100 to 500 nM | 2 to 3 | > 3 | > 20 ×10⁻⁶ cm/s | CC1COc2cc(Cl)ccc2N1C(=O)N1CC2(C1)CN(c1cccnn1)C2 (single isomer, unassigned) [9-1-B] |  |  |  |
| 100 to 500 nM |  |  |  | CC1COc2cc(F)ccc2N1C(=O)N1CC2(C1)CN(c1ccc(F)cn1)C2 (single isomer, unassigned) [12-1-B] | ++++ (>20 (10^−6 cm/sec) is highly permeable (++++)) | +++ (>1 but <2 has moderate probability of being an efflux substrate (+++)) | ++++ (efflux ratio or effective efflux ratio of <1 has low probability of being an efflux substrate (++++)) |
| 100 to 500 nM | 2 to 3 | 2 to 3 | > 20 ×10⁻⁶ cm/s | CC1COc2cc(Cl)c(F)cc2N1C(=O)N1CC2(C1)CN(c1cccnn1)C2 (single isomer, unassigned) [19-4-A] |  |  |  |
| 100 to 500 nM |  |  |  | Cc1cncc(N2CC3(CN(C(=O)N4c5ccc(F)cc5OCC4C)C3)C2)n1 (single isomer, unassigned) [20-2-B] | ++++ (>20 (10^−6 cm/sec) is highly permeable (++++)) | +++ (>1 but <2 has moderate probability of being an efflux substrate (+++)) | +++ (>1 but <2 has moderate probability of being an efflux substrate (+++)) |
| 100 to 500 nM | 1 to 2 | 1 to 2 | > 20 ×10⁻⁶ cm/s | CC1COc2cc(F)ccc2N1C(=O)N1CC2(C1)CN(c1cc(C#N)ccn1)C2 (single isomer, unassigned) [20-3-B] |  |  |  |
| < 100 nM |  |  |  | CC1COc2cc(Cl)ccc2N1C(=O)N1CC2(C1)CN(c1cc(C#N)ccn1)C2 (single isomer, unassigned) [20-6-B] | ++++ (>20 (10^−6 cm/sec) is highly permeable (++++)) | ++++ (efflux ratio or effective efflux ratio of <1 has low probability of being an efflux substrate (++++)) | ++++ (efflux ratio or effective efflux ratio of <1 has low probability of being an efflux substrate (++++)) |
| 100 to 500 nM |  |  |  | Cc1nc(N2CC3(CN(C(=O)N4c5ccc(Cl)cc5OCC4C)C3)C2)ncc1F (single isomer, unassigned) [20-7-B] | ++++ (>20 (10^−6 cm/sec) is highly permeable (++++)) | +++ (>1 but <2 has moderate probability of being an efflux substrate (+++)) | ++++ (efflux ratio or effective efflux ratio of <1 has low probability of being an efflux substrate (++++)) |
| 100 to 500 nM | < 1 | < 1 | > 20 ×10⁻⁶ cm/s | COc1ccnc(N2CC3(CN(C(=O)N4c5ccc(Cl)cc5OCC4C)C3)C2)c1 (single isomer, unassigned) [20-8-B] |  |  |  |
